Like-named read-outs stand apart in the source and are kept apart here. Square brackets hold non-standard residues; d marks the D form. Peptide text beside a SMILES is read from it. * marks the point of attachment. Phe(4-(2-MeO-Ph)) = COc1ccccc1-c1ccc(C[C@H](N)C(=O)O)cc1; Cyclohexanoyl(1S,3S-3-NH2) = N[C@H]1CCC[C@H](C(=O)*)C1; Trp(5-OMe) = COc1ccc2[nH]cc(C[C@H](N)C(=O)O)c2c1; Trp(5-OH) = N[C@@H](Cc1c[nH]c2ccc(O)cc12)C(=O)O; NHPh(4-CH2-morpholino) = c1cc(N*)ccc1CN1CCOCC1; NH(4-morpholinophenyl) = c1cc(N2CCOCC2)ccc1N*; Bip = N[C@@H](Cc1ccc(-c2ccccc2)cc1)C(=O)O; hArg = N=C(N)NCCCC[C@H](N)C(=O)O; X2 = Fc1cc(N*)ccc1N1CCOCC1; X3 = c1cc(N2CCNCC2)ccc1N*
Key:
[1] = molecular target: T1, recombinant EphA4 ligand binding domain (Homo sapiens, UniProt P54764, C204A); experiment: Isothermal titration calorimetry (ITC) against EphA4-LBD
T1 construct: His tag (N); made in house; host or cells: E. coli Rosetta-Gami B(DE3), pET15b
T1 sequence (P54764 29-209 C204A): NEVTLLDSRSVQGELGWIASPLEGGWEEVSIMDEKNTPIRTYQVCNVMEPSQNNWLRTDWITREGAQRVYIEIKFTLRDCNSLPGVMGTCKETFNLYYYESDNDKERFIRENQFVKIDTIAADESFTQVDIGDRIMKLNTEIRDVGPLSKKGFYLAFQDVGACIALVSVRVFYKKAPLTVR
Method: (§1) Peptides were synthesized by using standard solid-phase synthesis protocol, using the BAL resin as anchoring for the C-terminal amines. Isothermal Titration Calorimetry (ITC) measurements were performed in a reverse fashion by titrating the protein into the ligand solution. Solution nuclear magnetic resonance (NMR) experiments were conducted on a 700 MHz Bruker Avance spectrometer equipped with a TCI cryoprobe. Each protein sample was dissolved into an NMR tube at a final concentration of 20 μM (1% DMSO-d6) in the presence of 20 μM of each compound.
The fragments were transformed into Rosetta-Gami B(DE3) competent cells and grown in LB medium at 37° C. with 100 μg/mL of ampicillin until reaching an OD600 of 0.6-0.7 followed by induction with 0.4 mM IPTG overnight at 20° C. Bacteria were then collected by centrifugation and lysed by sonication at 4° C. […] EphA4 LBD with ^13C^ε/^1H^ε-Met labeled was expressed like previously described but adding a suspension of 100 mg of ^13C^ε/^1H^ε-Methionine in 1 mL of DMSO per liter of LB medium, 10 minutes before induction. […] Transformation, expression, and purification of EphA3-LBD chimera was performed as described above for EphA4-LBD.
Isothermal titration calorimetry (ITC) measurements were performed using the Affinity ITC Autosampler from TA Instruments (New Castle, Del.). The titrations were performed in a reverse fashion by titrating the protein into the ligand solution. […] The syringe was filled with a 100 μM solution of EphA4-LBD, EphA3-LBD Chimera, or EphA2-LBD, and 20 injections of 2.5 μL each were performed into the cell containing a 20 μM solution of the compounds. The injections were made at 200 s or 400 s intervals with a stirring speed of 75 rpm. All the solutions were kept in the autosampler at 4° C. The analysis of the thermodynamics signatures and for dissociation constant determination was performed by the NanoAnalyze software (TA Instruments, New Castle, Del.) and subsequently exported into Microsoft Excel.

[2] = molecular target: T2, ^13C^ε-Met-labeled EphA4-LBD (Homo sapiens, UniProt P54764, C204A); experiment: 2D [13C,1H] HSQC NMR chemical shift perturbation of Met resonances; format: binding; settings: for Δδ ^13C^ϵ/^1H^ϵ Met 164: protein 20 μM, 20 μM of each compound; for Δδ Met 60 / Δδ Met 115 / Δδ Met 164: test ligands at 40 μM, EphA4-LDB at 20 μM, Table 8
T2 construct: His tag (N); made in house; host or cells: E. coli Rosetta-Gami B(DE3), pET15b
T2 sequence (P54764 29-209 C204A): as above
Method: as §1, with “Each protein sample was dissolved into an NMR tube at a final concentration of 20 μM (1% DMSO-d6) in the presence of 20 μM of each compound.” left out
2D [^13C,^1H] correlation NMR spectra measured with such protein targets, collected in absence or presence of test ligands can be used to monitor ligand binding and make, albeit qualitative, determinations on possible conformational changes induced by test ligands on the protein target. […] In targeting EphA4, an important aspect regarding the activity of its ligands is whether these agents could be predicted to work as antagonists or agonists.
NMR spectra were acquired on Bruker Avance III 700 MHz spectrometer equipped with a TCI cryoprobe. All NMR data were processed and analyzed using TOPSPIN 3.6.1 (Bruker, Billerica, Mass., USA).
Chemical shift changes (A) in the 2D [^13C, ^1H] spectra were calculated as weight average perturbations observed in the ^1H and ^13C dimensions using the following Equation: […]

Aqueous solubility = format: physicochemical
[3] = tested on: mouse motor neurons co-cultured with iAstrocytes derived from sALS patients; experiment: Co-culture of sALS patient derived iAstrocytes and motor neurons (motor neuron survival); format: cell-based; settings: 100 μM
Text: EphA4 has been directly implicated in the progression of ALS in mice models and in human genetic studies. While the mechanisms for onset and progression of ALS remain largely undetermined, astrocytes have been implicated as significant contributors to motor neuron death in both in familial ALS (fALS), that is driven by inactivating mutations within the superoxide dismutase 1 (SOD1) gene and that account for less than 2% of all ALS cases, (Di Giorgio et al., Nat Neurosci, 10 (5): 608-614, (2007); Nagai et al., Nat Neurosci, 10 (5): 615-622, (2007); Yamanaka et al., Nat Neurosci, 11 (3): 251-253, (2008)) and the more common sporadic form of ALS (sALS). […] Recently, it was shown that astrocytes derived from both patient groups are similarly toxic to motor neurons (Haidet-Phillips et al., Nat Biotechnol, 29 (9): 824-828, (2011)).
Induced Astrocytes were generated by seeding a low quantity of NPCs into astrocyte medium (DMEM media containing 10% FBS and 0.2% N2) for five days. Following differentiation, iAstrocytes were lifted and seeded into a 96 well (10,000 cells per well).
Cells are sorted through a 100 micron tip with sheath pressure of 27. GFP+ motor neurons were seeded in a 96 well plate (10,000 cells per well). Co-cultures were imaged with InCell for up to three days. Motor neurons with neurite outgrowth of greater than 50 um were counted as alive.

[4] = tested on: SOD1(G93A) transgenic mice; settings: SOD1(G93A) models, literature; cited from earlier work
EphA4 = settings: reported previously; cited from earlier work
[5] = ITC with the ligand binding domain, Table 8, read-out: Kd (nM) vs EphA4

COc1ccccc1-c1ccc(C[C@H](NC(=O)[C@H](Cc2c[nH]c3ccc(O)cc23)NC(=O)[C@H]2CCC[C@H](N)C2)C(=O)N[C@@H](CCCCNC(=N)N)C(=O)NCC(=O)Nc2ccc(N3CCOCC3)c(F)c2)cc1 [Compound 16] ({Cyclohexanoyl(1S,3S-3-NH2)}-[Trp(5-OH)][Phe(4-(2-MeO-Ph))][hArg]G-X2)
Kd [1]: 127 nM | -TΔS ([1]; ITC, EphA4-LBD): 0.58 kcal/mol | AH ([1]; ITC, EphA4-LBD): -10.00 kcal/mol | Δδ ^13C^ϵ/^1H^ϵ Met 164 [2]: + (0< + <0.1 ppm)

COc1ccc2[nH]cc(C[C@H](NC(=O)[C@H]3CCC[C@H](N)C3)C(=O)N[C@@H](Cc3ccc(-c4ccccc4OC)cc3)C(=O)N[C@@H](CCCCNC(=N)N)C(=O)NCC(=O)Nc3ccc(CN4CCOCC4)cc3)c2c1 [Compound 5] ({Cyclohexanoyl(1S,3S-3-NH2)}-[Trp(5-OMe)][Phe(4-(2-MeO-Ph))][hArg]G-{NHPh(4-CH2-morpholino)})
Kd [1]: 163 nM | -TΔS ([1]; ITC, EphA4-LBD): -2.25 kcal/mol | AH ([1]; ITC, EphA4-LBD): -7.00 kcal/mol | Δδ ^13C^ϵ/^1H^ϵ Met 164 [2]: ++ (0.1 ppm < ++ < 0.2 ppm)

COc1ccc2[nH]cc(C[C@H](NC(=O)[C@H]3CCC[C@H](N)C3)C(=O)N[C@@H](Cc3ccc(-c4ccccc4)cc3)C(=O)N[C@@H](CCCCNC(=N)N)C(=O)NCC(=O)Nc3ccc(CN4CCOCC4)cc3)c2c1 [Compound 4] ({Cyclohexanoyl(1S,3S-3-NH2)}-[Trp(5-OMe)][Bip][hArg]G-{NHPh(4-CH2-morpholino)})
Kd [1]: 100 nM | -TΔS ([1]; ITC, EphA4-LBD): -3.57 kcal/mol | AH ([1]; ITC, EphA4-LBD): -5.99 kcal/mol | Δδ ^13C^ϵ/^1H^ϵ Met 164 [2]: +++ (0.2< +++ <0.25)

COc1ccccc1-c1ccc(C[C@H](NC(=O)[C@H](Cc2c[nH]c3ccc(O)cc23)NC(=O)[C@H]2CCC[C@H](N)C2)C(=O)N[C@@H](CCCCNC(=N)N)C(=O)NCC(=O)Nc2ccc(CN3CCOCC3)cc2)cc1 [Compound 2, (1S,3S)-3-amino-N—((S)-1-(((S)-1-(((S)-6-guanidino-1-((2-((4-(morpholinomethyl)phenyl)amino)-2-oxoethyl)amino)-1-oxohexan-2-yl)amino)-3-(2′-methoxy-[1,1′-biphenyl]-4-yl)-1-oxopropan-2-yl)amino)-3-(5-hydroxy-1H-indol-3-yl)-1-oxopropan-2-yl)cyclohexane-1-carboxamide] ({Cyclohexanoyl(1S,3S-3-NH2)}-[Trp(5-OH)][Phe(4-(2-MeO-Ph))][hArg]G-{NHPh(4-CH2-morpholino)})
Aqueous Solubility (Aqueous solubility): >50 mM | Kd [1]: 75 nM | Kd [1, 5]: 77 nM | -TΔS ([1]; ITC, EphA4-LBD): -0.97 kcal/mol | AH ([1]; ITC, EphA4-LBD): -8.74 kcal/mol | Δδ ^13C^ϵ/^1H^ϵ Met 164 [2]: + (0< + <0.1 ppm) | Δδ Met 60 [2]: ++ (0.1 ppm < ++ <0.2 ppm) | Δδ Met 115 [2]: + (0< + <0.1 ppm) | Δδ Met 164 [2]: + (0< + <0.1 ppm)

COc1ccc2[nH]cc(CCNC(=O)[C@H](Cc3ccncc3)NC(=O)[C@H](Cc3ccc(Cl)cc3)NC(=O)[C@H](Cc3c[nH]c4ccc(O)cc34)NC(=O)CCCN)c2c1 [Compound 123C4, reference compound]
protection of motor neurons from sALS astrocytes-induced death [3]: to a lesser extent, 123C4 (at a higher concentration) were able to protect mouse motor neurons | disease onset / survival [4]: significantly prolonged survival | Δδ Met 60 [2]: + (0< + <0.1 ppm) | Δδ Met 115 [2]: + (0< + <0.1 ppm) | Δδ Met 164 [2]: ++ (0.1 ppm < ++ <0.2 ppm) | agonistic activity for EphA4 in primary cortical neurons (EphA4): induced receptor phosphorylation and growth cone collapse

COc1ccccc1-c1ccc(C[C@H](NC(=O)[C@H](Cc2c[nH]c3ccc(O)cc23)NC(=O)[C@H]2CCC[C@H](N)C2)C(=O)N[C@@H](CCCCNC(=N)N)C(=O)NCC(=O)Nc2ccc(N3CCOCC3)cc2)cc1 [Compound 3, (1S,3S)-3-amino-N—((S)-1-(((S)-1-(((S)-6-guanidino-1-((2-((4-morpholinophenyl)amino)-2-oxoethyl)amino)-1-oxohexan-2-yl)amino)-3-(2′-methoxy-[1,1′-biphenyl]-4-yl)-1-oxopropan-2-yl)amino)-3-(5-hydroxy-1H-indol-3-yl)-1-oxopropan-2-yl)cyclohexane-1-carboxamide] ({Cyclohexanoyl(1S,3S-3-NH2)}-[Trp(5-OH)][Phe(4-(2-MeO-Ph))][hArg]G-{NH(4-morpholinophenyl)})
Aqueous Solubility (Aqueous solubility): >50 mM | -TΔS ([1]; ITC, EphA4-LBD): -0.60 kcal/mol | AH ([1]; ITC, EphA4-LBD): -8.92 kcal/mol | Kd ([1]; ITC, EphA4-LBD, read-out: Kd (nM)- ITC): 106 nM | Δδ ^13C^ϵ/^1H^ϵ Met 164 [2]: + (0< + <0.1 ppm) | Δδ Met 60 [2]: + (0< + <0.1 ppm) | Δδ Met 115 [2]: + (0< + <0.1 ppm) | Δδ Met 164 [2]: + (0< + <0.1 ppm)

N=C(N)NCCCC[C@H](NC(=O)[C@H](Cc1ccc(-c2ccccc2)cc1)NC(=O)[C@H](Cc1c[nH]c2ccc(O)cc12)NC(=O)[C@H]1CCC[C@H](N)C1)C(=O)NCC(=O)Nc1ccc(N2CCNCC2)cc1 [Compound 10] ({Cyclohexanoyl(1S,3S-3-NH2)}-[Trp(5-OH)][Bip][hArg]G-X3)
Kd [1]: 90 nM | -TΔS ([1]; ITC, EphA4-LBD): -1.35 kcal/mol | AH ([1]; ITC, EphA4-LBD): -8.27 kcal/mol | Δδ ^13C^ϵ/^1H^ϵ Met 164 [2]: ++++ (++++ >0.25 ppm)

N=C(N)NCCCC[C@H](NC(=O)[C@H](Cc1ccc(-c2ccccc2)cc1)NC(=O)[C@H](Cc1c[nH]c2ccc(O)cc12)NC(=O)[C@H]1CCC[C@H](N)C1)C(=O)NCC(=O)Nc1ccc(CN2CCOCC2)cc1 [Compound 9, (1S,3S)—N—((S)-1-(((S)-3-([1,1′-biphenyl]-4-yl)-1-(((S)-6-guanidino-1-((2-((4-(morpholinomethyl)phenyl)amino)-2-oxoethyl)amino)-1-oxohexan-2-yl)amino)-1-oxopropan-2-yl)amino)-3-(5-hydroxy-1H-indol-3-yl)-1-oxopropan-2-yl)-3-aminocyclohexane-1-carboxamide] ({Cyclohexanoyl(1S,3S-3-NH2)}-[Trp(5-OH)][Bip][hArg]G-{NHPh(4-CH2-morpholino)})
Aqueous Solubility (Aqueous solubility): >50 mM | Kd [1, 5]: 144 nM | -TΔS ([1]; ITC, EphA4-LBD): -1.90 kcal/mol | AH ([1]; ITC, EphA4-LBD): -7.44 kcal/mol | Δδ ^13C^ϵ/^1H^ϵ Met 164 [2]: +++ (0.2< +++ <0.25) | Δδ Met 60 [2]: ++ (0.1 ppm < ++ <0.2 ppm) | Δδ Met 115 [2]: + (0< + <0.1 ppm) | Δδ Met 164 [2]: +++ (0.2< +++ <0.25)

Source: patent US20230203096A1, “EPHA4 TARGETING COMPOUNDS AND METHODS OF USE THEREOF” (priority 2020, published 2023)
